The target of one data set is T1, Toll-like receptor 9 (Homo sapiens, UniProt Q9NR96).
T1 sequence (Q9NR96 whole entry): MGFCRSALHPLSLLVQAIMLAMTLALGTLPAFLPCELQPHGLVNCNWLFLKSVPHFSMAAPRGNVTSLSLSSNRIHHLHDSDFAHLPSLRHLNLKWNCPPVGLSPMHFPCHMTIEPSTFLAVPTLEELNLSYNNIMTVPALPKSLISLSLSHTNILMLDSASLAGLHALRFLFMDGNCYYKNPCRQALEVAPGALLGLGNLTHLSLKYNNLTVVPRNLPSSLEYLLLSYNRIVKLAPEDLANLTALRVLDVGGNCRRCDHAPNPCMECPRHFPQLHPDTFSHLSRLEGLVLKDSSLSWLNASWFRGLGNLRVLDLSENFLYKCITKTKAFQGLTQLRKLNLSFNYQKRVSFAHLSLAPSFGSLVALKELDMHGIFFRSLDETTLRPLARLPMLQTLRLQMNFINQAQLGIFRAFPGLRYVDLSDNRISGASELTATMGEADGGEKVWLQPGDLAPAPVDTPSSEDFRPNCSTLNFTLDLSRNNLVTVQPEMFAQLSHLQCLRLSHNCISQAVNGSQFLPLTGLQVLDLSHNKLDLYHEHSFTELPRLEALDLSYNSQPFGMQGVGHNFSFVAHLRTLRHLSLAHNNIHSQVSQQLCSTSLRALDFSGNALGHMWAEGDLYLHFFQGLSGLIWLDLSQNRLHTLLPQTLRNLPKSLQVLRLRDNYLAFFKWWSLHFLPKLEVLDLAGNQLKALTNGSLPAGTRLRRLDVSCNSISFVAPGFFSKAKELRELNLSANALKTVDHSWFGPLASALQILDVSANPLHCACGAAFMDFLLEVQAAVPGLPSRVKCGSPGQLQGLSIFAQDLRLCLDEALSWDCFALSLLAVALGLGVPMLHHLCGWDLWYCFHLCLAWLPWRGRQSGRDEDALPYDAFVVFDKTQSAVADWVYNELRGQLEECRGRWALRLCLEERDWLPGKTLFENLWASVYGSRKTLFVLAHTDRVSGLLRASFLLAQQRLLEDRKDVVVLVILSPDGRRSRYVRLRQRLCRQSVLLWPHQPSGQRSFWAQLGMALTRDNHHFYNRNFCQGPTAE
Briefly: Antagonist activity at human TLR9 expressed in […] cells assessed as inhibition of CpGB-induced NFkappaB activation measured after overnight incubation by SEAP-based spectrophotometry assay. Format: cell-based, HEK293.

In a further data set the target is T2, Toll-like receptor 7 (Homo sapiens, UniProt Q9NYK1).
T2 sequence (Q9NYK1 whole entry): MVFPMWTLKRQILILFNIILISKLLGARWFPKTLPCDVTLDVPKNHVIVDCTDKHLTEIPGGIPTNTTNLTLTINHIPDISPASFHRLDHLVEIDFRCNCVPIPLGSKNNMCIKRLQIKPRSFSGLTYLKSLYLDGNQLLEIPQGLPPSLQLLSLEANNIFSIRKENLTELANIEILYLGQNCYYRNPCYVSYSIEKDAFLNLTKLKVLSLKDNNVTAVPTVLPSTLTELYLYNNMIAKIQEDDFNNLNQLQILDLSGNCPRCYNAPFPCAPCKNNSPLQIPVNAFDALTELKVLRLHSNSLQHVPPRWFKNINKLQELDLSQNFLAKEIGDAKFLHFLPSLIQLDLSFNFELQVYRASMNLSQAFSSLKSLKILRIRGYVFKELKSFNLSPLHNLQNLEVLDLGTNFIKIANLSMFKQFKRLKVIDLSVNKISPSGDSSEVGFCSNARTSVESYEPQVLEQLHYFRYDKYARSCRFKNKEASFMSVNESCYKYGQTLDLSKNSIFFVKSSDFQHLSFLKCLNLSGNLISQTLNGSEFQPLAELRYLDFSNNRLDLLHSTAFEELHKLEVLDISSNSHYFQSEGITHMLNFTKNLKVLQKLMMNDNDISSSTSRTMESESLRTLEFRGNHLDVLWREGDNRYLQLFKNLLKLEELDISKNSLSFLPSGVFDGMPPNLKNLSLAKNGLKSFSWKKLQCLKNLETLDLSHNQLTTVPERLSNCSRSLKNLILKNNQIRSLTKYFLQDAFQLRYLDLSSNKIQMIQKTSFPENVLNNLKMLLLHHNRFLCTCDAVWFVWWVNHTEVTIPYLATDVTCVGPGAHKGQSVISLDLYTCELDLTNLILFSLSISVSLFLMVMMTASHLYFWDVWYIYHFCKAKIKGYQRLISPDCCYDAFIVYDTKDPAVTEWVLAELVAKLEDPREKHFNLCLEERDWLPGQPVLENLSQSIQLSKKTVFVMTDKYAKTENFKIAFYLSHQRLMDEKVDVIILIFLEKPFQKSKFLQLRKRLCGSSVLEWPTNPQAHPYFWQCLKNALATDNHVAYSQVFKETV
Briefly: Antagonist activity at human TLR7 expressed in HEK-blue-HTLR7 cells assessed as inhibition of CL264-induced NFkappaB activation measured after overnight incubation by SEAP-based spectrophotometry assay.

Data set [1] in a line: Metabolic stability in human liver microsomes assessed as intrinsic clearance incubated for 60 mins by LC-MS/MS analysis. (Liver microsomes are vesicles of endoplasmic reticulum, rich in cytochrome P450 enzymes.)
Data set [2] can be described thus: Apparent permeability across basolateral to apical side in human Caco2 cells at 10 uM measured after 10 mins by LC-MS/MS analysis. The note with it: Caco-2. (Caco-2 monolayers are a common model of the intestinal barrier.)
Data set [3] can be described thus: Apparent permeability across apical to basolateral side in human Caco2 cells at 10 uM measured after 10 mins by LC-MS/MS analysis. The note with it: Caco-2.
The nature of data set [4]: Efflux ratio of apparent permeability across apical to basolateral over basolateral to apical side in human Caco2 cells measured after 10 mins by LC-MS/MS analysis. Conditions: Caco-2.
Data set [5] is described as follows: Stability in mouse plasma measured after 2 hrs by LC-MS/MS analysis.
Data set [6] in a line: Metabolic stability in human liver microsomes assessed as compound remaining incubated for 60 mins by LC-MS/MS analysis.
A further data set addresses T3, Toll-like receptor 8 (Homo sapiens, UniProt Q9NR97).
T3 sequence (Q9NR97 whole entry): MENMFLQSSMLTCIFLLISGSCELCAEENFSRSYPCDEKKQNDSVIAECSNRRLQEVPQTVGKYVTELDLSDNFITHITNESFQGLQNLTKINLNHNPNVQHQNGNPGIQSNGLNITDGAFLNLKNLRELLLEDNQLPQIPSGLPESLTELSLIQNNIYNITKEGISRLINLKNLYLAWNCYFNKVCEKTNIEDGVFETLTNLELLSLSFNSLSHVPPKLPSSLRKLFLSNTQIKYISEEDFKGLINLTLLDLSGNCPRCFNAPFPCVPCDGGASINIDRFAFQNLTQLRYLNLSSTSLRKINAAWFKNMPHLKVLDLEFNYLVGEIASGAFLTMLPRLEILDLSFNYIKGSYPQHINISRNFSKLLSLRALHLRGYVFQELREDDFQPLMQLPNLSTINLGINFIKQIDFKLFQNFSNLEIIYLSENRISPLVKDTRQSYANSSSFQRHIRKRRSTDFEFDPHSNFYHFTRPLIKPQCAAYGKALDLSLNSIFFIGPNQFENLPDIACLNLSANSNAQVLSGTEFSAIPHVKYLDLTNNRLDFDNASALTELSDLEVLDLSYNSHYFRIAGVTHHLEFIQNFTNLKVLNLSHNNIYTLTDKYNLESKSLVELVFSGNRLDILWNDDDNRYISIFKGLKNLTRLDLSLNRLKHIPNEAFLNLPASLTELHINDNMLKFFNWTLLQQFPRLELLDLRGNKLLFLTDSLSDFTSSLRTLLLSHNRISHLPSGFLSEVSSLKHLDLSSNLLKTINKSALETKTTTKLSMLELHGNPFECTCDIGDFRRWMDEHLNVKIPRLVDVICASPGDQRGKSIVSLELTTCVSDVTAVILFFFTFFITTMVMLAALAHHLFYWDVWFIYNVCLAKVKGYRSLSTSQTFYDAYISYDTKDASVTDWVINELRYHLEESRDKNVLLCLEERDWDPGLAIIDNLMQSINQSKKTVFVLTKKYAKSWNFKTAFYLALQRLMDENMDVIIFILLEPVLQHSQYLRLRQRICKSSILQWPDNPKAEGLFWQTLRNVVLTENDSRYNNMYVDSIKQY
Briefly: Antagonist activity at human TLR8 expressed in […] cells assessed as inhibition of CL075-induced NFkappaB activation measured after overnight incubation by SEAP-based spectrophotometry assay. The format is cell-based, HEK293.

pIC50: −log10 of the molar value.

The pIC50 is the IC50 on a negative log10 scale, so that one unit is a factor of ten. As a reminder, the microsomal CLint is the rate of metabolic loss divided by the concentration. As usually defined, the Papp B→A is the apparent permeability from the basolateral to the apical side of a cell layer. What is called Papp A→B is the apparent permeability from the apical to the basolateral side of a cell layer. For orientation: efflux ratio means the permeability from basolateral to apical divided by that in the opposite direction, in the common usage. The term share remaining denotes what is left of the initial amount, in per cent.

Take `CCN1CCN(CCCn2cnc3c(N4CCN(CC)CC4)ncnc32)CC1`: the pIC50 at Toll-like receptor 9 is 5.92; at Toll-like receptor 7, 5.32. Moreover, in data set [1], the microsomal CLint at 1 h is 7.81 µL/min/mg. For the same compound, the Papp B→A at 10 min, 10 µM in data set [2] was found to be 9.28 ×10⁻⁶ cm/s. In addition, the Papp A→B at 10 min, 10 µM in [3] amounted to 3.57 ×10⁻⁶ cm/s. Further, the efflux ratio at 10 min in data set [4] was 2.6. Moreover, the fraction remaining at 2 h in data set [5] is 99%. Besides, the amount remaining at 1 h in [6] amounted to 75.8%.
For the compound `CCN1CCN(CCCn2cnc3c(N4CCN(C(=O)c5ccccc5)CC4)nc(NCc4ccc(F)cc4)nc32)CC1`, the pIC50 at Toll-like receptor 9 and on Toll-like receptor 7 was less than 4.52 each time.
Consider `CCN1CCN(c2nc(N)nc3c2ncn3CCCN2CCCC2)CC1`, for which the pIC50 at Toll-like receptor 9 is 6.72; at Toll-like receptor 7, 5.31.
For `CCN1CCN(CCCn2cnc3c(N4CCN(C5CCCC5)CC4)nc(N)nc32)CC1` the same measures were 6.55 and 4.88.
Taken in the same sequence, the figures for `CCN1CCN(CCCn2cnc3c(N4CCN(C(=O)c5ccccc5)CC4)nc(NCc4ccc(N(CC)CC)cc4)nc32)CC1` were 5.47 and 5.08.
For `CCN1CCN(CCCn2cnc3c(N4CCN(CC)CC4)nc(N4CCCC4)nc32)CC1` the same measures were 6.30 and 5.07.
For the compound `CCN1CCN(CCCn2cnc3c(N4CCN(C5CCCC5)CC4)nc(NCc4ccc(N(CC)CC)cc4)nc32)CC1`, the pIC50 at Toll-like receptor 9 is 6.82; on Toll-like receptor 7, 5.09.
For the compound `CCN1CCN(c2nc(NCc3ccc(F)cc3)nc3c2ncn3CCCN2CCCC2)CC1`, the figures for the pIC50 at Toll-like receptor 9 and at Toll-like receptor 8 were 7.40 and less than 4.52, respectively.
`CCN1CCN(CCCn2cnc3c(N4CCN(CC)CC4)nc(N)nc32)CC1`: the pIC50 is 6.59 at Toll-like receptor 9 and 4.79 on Toll-like receptor 7.
For `CCN1CCN(CCCn2cnc3c(N4CCN(C5CCCC5)CC4)nc(NCc4ccc(F)cc4)nc32)CC1` the same measures were 6.60 and less than 4.52.
For `CCN1CCN(CCCn2cnc3c(N4CCN(C(=O)c5ccccc5)CC4)nc(N4CCCC4)nc32)CC1` the same measures were less than 4.52 and less than 4.52.
Turning to `CCN1CCN(CCCn2cnc3c(N4CCN(C(=O)C5CCCC5)CC4)nc(NCc4ccc(F)cc4)nc32)CC1`, the pIC50 on Toll-like receptor 9 and at Toll-like receptor 7 was less than 4.52 throughout.
With `CCN1CCN(CCCn2cnc3c(N4CCN(C(=O)c5ccccc5)CC4)nc(N)nc32)CC1`, the pIC50 at Toll-like receptor 9 and on Toll-like receptor 7 was less than 4.52 each time.
On to `CCN1CCN(CCCn2cnc3c(N4CCN(C5CCCC5)CC4)nc(NC(=O)c4ccc(CN(C)C)cc4)nc32)CC1`, for which the pIC50 is 7.22 at Toll-like receptor 9 and less than 4.52 at Toll-like receptor 8.
For `COc1ccc(CNc2nc(N3CCN(C4CCCC4)CC3)c3ncn(CCCN4CCCC4)c3n2)cc1`, on Toll-like receptor 7, the pIC50 is 4.93.
Consider `Nc1nc(N2CCN(C3CCCC3)CC2)c2ncn(CCCN3CCCC3)c2n1`, for which the pIC50 is 6.92 on Toll-like receptor 9 and 5.31 on Toll-like receptor 7.
Regarding `CCN1CCN(CCCn2cnc3c(N4CCN(CC)CC4)nc(NCc4ccccc4)nc32)CC1`, the pIC50 on Toll-like receptor 7 is 5.12.
`CCN1CCN(c2nc(NCc3ccc(OC)cc3)nc3c2ncn3CCCN2CCCC2)CC1`: the pIC50 at Toll-like receptor 8 was less than 4.52.
Regarding `CCN1CCN(CCCn2cnc3c(N4CCN(CC)CC4)nc(NCc4ccc(F)cc4)nc32)CC1`, the pIC50 on Toll-like receptor 7 is 4.99.
Take `CCN1CCN(CCCn2cnc3c(N4CCN(CC)CC4)nc(NCc4ccc(OC)cc4)nc32)CC1`: the values for the pIC50 at Toll-like receptor 9 and at Toll-like receptor 7 were 6.70 and 5.28, respectively.
For `CCN1CCN(CCCn2cnc3c(N4CCN(C(=O)C5CCCC5)CC4)nc(N)nc32)CC1` the same measures were less than 4.52 and less than 4.52.
As for `CCN1CCN(CCCn2cnc3c(N4CCN(CC)CC4)nc(NC(=O)c4ccccc4)nc32)CC1`, on Toll-like receptor 7, the negative logarithm of the IC50 (pIC50) is 5.11.
On the same count and under the same terms, then `CCN1CCN(CCCn2cnc3c(N4CCN(C5CCCC5)CC4)nc(NCc4ccc(OC)cc4)nc32)CC1`, with less than 4.52.
Consider `CCN1CCN(CCCn2cnc3c(N4CCN(C(=O)c5ccccc5)CC4)nc(NCc4ccc(OC)cc4)nc32)CC1`, for which the pIC50 on Toll-like receptor 9 and at Toll-like receptor 7 was less than 4.52 throughout.
For the compound `CCN1CCN(CCCn2cnc3c(N4CCN(C(=O)C5CCCC5)CC4)nc(NCc4ccc(OC)cc4)nc32)CC1`, the pIC50 on Toll-like receptor 9 and on Toll-like receptor 7 was less than 4.52 each time.

The values are drawn from ChEMBL document CHEMBL5036327, “Systematic Optimization of Potent and Orally Bioavailable Purine Scaffold as a Dual Inhibitor of Toll-Like Receptors 7 and 9” (J Med Chem, 2021).
